# Data: patent US20070218475A1, “Efficient drug screening for protein targets” (priority 2005, published 2007)
# Where two headings read alike, the source gives them in different places.
# Legend:
# [1] = test system: Shh signaling; assay: Shh-LIGHT2 assay for Hh pathway activation (Gli-dependent luciferase reporter); format: cell-based, mouse
# [2] = Keeler and Binns 1965; Berman et al. 2002; cited from earlier work
# [3] = molecular target: T1, Smo (Mus musculus, UniProt P56726); assay: Fluorescence (BODIPY-cyclopamine) binding assay, Smo-expressing Cos-1 cells
# T1 construct: expressed in transfected cells; host or cells: Cos-1
# Procedure: (§1) For flow cytometry experiments, the cells were then trypsinized, collected by centrifugation, resuspended in phenol red-free DMEM containing 0.5% bovine calf serum, and analyzed for green fluorescence (FACScan, Beckton Dickinson). […] Curve fitting analysis was performed with Kaleidograph (Synergy Software).
# [4] = molecular target: T2, SmoΔCRD (Mus musculus, UniProt P56726, DEL68-182); assay: Fluorescence (BODIPY-cyclopamine) binding assay, Cos-1 cells expressing SmoΔCRD; settings: 150 nM KAAD-cyclopamine
# T2 construct: expressed in transfected cells; host or cells: Cos-1
# Source text: (§2) Preparation of Smo fusion proteins and deletion mutants: Both Smo-Myc3 and SmoA1-Myc3 are C-terminally fused to three consecutive Myc epitopes. […] Smo-GFP is comprised of green fluorescent protein fused to the C-terminus of Smo, and the fluorescent proteins in SmoA1-YFP, and SmoA1-GFP are similarly fused to the C-terminus of SmoA1. All constructs were generated by PCR and verified by DNA sequencing.
# as §1
# [5] = molecular target: T3, SmoΔCT (Mus musculus, UniProt P56726); assay: Fluorescence (BODIPY-cyclopamine) binding assay, Cos-1 cells expressing SmoΔCT; settings: 150 nM KAAD-cyclopamine
# T3 construct: expressed in transfected cells; host or cells: Cos-1
# T3 sequence (P56726 33-555 limits assumed): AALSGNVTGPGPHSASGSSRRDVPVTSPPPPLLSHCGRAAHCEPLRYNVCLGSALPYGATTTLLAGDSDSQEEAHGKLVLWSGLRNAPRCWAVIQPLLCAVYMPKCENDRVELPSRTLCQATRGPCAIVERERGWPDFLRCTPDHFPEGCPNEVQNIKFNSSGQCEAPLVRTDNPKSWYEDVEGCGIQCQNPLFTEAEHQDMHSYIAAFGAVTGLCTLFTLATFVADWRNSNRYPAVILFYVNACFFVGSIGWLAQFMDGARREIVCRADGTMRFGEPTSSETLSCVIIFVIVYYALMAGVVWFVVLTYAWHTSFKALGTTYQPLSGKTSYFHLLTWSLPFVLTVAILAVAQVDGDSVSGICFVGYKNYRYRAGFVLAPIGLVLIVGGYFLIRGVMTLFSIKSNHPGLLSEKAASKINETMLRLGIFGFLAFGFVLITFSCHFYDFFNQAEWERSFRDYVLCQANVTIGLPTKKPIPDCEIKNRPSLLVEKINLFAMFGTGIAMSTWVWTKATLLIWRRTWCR
# Source text: as §2, §1
# [6] = molecular target: T1, Smo; assay: Photoaffinity labeling of Smo with 125I-labeled PA-cyclopamine; format: binding
# [7] = molecular target: T4, SmoA1-GFP (Mus musculus, UniProt P56726, W539L); assay: Localization study of SmoA1-GFP in C3H/10T1/2 cells; format: cell-based
# T4 construct: expressed in transfected cells; host or cells: C3H/10T1/2
# Procedure: Localization studies of Smo and SmoA1 proteins: C3H/10T1/2 cells (ATCC) were cultured in DMEM containing 10% fetal bovine serum, 0.5 μg/ml ZnSO4 and β-mercaptoethanol (3.5 μL/500 ml DMEM) on glass coverslips (Bioptechs) in […]. […] To assess SmoA1 subcellular localization, either an ER marker (pECFP-ER; Clontech) or a Golgi marker (pECFP-Golgi; Clontech) was cotransfected with the SmoA1-YFP construct. […] Fluorescent protein illumination, detection and imaging was performed on a Zeiss inverted microscope outfitted with a Xenon light source (Lambda DG4; Sutter instruments), single or dual-pass filters (Chroma Technologies), and a cooled CCD camera (Roper Scientific). Images were acquired and processed with Metamorph software (Universal Images).
# [8] = molecular target: T5, SmoA1-Myc3 (Mus musculus, UniProt P56726, W539L); assay: Endo H digestion of SmoA1-Myc3 (glycosylation state) in Cos-1 cells; format: cell-based; settings: 5 μM KAAD-cyclopamine
# T5 construct: expressed in transfected cells; host or cells: Cos-1
# Procedure: Endo H digestion of Smo proteins: Cos-1 cells were cultured in DMEM containing 10% fetal bovine serum in 6-well plates and transfected with Smo-Myc3 or SmoA1-Myc3 expression vectors (1 μg/well). One day after transfection, 5 μM KAAD-cyclopamine (in MeOH, final concentration 0.1%) was added to a well of the SmoA1-Myc3-expressing cells. Two days after transfection, each well of cells washed twice with PBS and lysed with 300 μL of RIPA buffer (50 mM Tris-Cl, pH 7.5, 150 mM NaCl, 1% NP-40, 0.5% sodium deoxycholate, 1 mM EDTA, 1 (μg/ml leupeptin, 1 μg/ml aprotinin, 0.2 mM phenylmethylsulfonyl fluoride). Cell lysates were centrifuged at 20,000×g for 15 minutes at 4° C., and the supernatant was then centrifuged at 100,000×g for 30 minutes. The supernatant of the second centrifugation was then used for glycosidase treatments and/or SDS-PAGE. For glycosidase treatments, 45 μL of cell lysate was denatured in 0.5% SDS, 1% β-mercaptoethanol for 10 minutes at room temperature and then incubated in 50 mM sodium citrate (pH 5.5) and 50 units of endoglycosidase-H (New England Biolabs) at 37° C. overnight. The anti-Myc monoclonal antibody was used for western blotting, following SDS-PAGE separation and protein transfer to nitrocellulose.
# [9] = test system: Shh signaling; settings: read-out: IC50 in the Shh-LIGHT2 assay, Taipale et al. 2000; cited from earlier work
# [10] = molecular target: T6, SmoA1 (Mus musculus, UniProt P56726, W539L); assay: Photoaffinity labeling of SmoA1 with 125I-labeled PA-cyclopamine; format: binding; settings: Cos-1 cells, SmoA1-Myc3
# T6 construct: expressed in transfected cells; host or cells: Cos-1
# Procedure: Photoaffinity labeling of Smo proteins: Cos-1 cells were cultured in 6-well plates and transfected with Smo-Myc3 or SmoA1-Myc3 expression vectors (1 μg/well). Two days after transfection, each well was incubated with 1 μCi of ^125I-labeled PA-cyclopamine (˜0.5 nM final concentration) in phenol red-free DMEM containing 0.5% bovine calf serum and various concentrations of the indicated compounds for 10 minutes at 37° C. Solvent vehicle alone (MeOH or DMSO) was used as a control in these experiments. PA-cyclopamine was then activated by 254 nm light (80,000 μJ/cm^2; Stratalinker UV-cross-linker) at room temperature. The cells were immediately chilled on ice, removed from the plates by scraping, and then directly lysed and sonicated in SDS-PAGE loading buffer. Total cell lysates were separated by SDS-PAGE and transferred to nitrocellulose for analysis by autoradiography and western blotting with an anti-Myc monoclonal antibody (9E10; Santa Cruz Biotechnology).
# T1 sequence (P56726 33-793): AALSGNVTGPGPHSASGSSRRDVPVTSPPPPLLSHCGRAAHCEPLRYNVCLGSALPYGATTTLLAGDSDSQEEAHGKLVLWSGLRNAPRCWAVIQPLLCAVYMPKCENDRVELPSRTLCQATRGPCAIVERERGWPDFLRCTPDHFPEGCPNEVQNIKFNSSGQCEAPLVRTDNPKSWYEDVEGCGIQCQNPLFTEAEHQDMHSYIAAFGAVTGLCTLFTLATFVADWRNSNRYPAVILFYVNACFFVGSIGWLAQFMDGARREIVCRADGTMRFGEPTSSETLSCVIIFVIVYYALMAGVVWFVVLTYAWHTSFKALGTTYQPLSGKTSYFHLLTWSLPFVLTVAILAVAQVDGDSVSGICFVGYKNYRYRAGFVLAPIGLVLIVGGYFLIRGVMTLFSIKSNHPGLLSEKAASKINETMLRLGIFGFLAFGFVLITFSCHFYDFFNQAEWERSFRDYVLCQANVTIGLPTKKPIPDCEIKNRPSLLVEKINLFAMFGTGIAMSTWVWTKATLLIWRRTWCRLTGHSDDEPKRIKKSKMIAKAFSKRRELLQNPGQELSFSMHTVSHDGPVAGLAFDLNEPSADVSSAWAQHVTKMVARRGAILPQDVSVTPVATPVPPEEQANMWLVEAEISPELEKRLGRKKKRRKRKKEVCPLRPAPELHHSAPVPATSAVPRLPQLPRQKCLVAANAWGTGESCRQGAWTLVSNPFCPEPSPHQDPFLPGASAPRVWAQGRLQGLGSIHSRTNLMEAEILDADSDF
# T4 sequence (P56726 33-793 W539L): as the sequence (P56726 33-793) above, with W507L counted along it
# T2 sequence (P56726 with tags, fused parts or gaps DEL68-182): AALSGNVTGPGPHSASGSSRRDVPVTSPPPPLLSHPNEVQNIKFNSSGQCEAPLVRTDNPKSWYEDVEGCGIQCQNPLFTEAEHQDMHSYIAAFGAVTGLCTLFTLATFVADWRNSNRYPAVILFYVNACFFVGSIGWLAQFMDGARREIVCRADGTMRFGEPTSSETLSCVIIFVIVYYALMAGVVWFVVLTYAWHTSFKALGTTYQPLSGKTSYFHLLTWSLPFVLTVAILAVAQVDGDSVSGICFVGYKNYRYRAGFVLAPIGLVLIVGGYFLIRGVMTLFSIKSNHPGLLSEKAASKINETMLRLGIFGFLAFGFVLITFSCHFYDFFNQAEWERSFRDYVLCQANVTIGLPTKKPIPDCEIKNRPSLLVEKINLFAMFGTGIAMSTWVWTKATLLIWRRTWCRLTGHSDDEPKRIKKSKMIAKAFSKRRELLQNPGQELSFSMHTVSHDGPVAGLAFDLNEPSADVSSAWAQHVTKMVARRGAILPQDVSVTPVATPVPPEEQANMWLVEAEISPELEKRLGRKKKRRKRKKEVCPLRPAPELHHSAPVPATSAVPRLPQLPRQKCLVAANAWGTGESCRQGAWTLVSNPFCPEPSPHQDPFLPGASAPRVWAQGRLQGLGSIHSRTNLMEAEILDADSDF
# T5 sequence (P56726 33-793 W539L): as the sequence (P56726 33-793) above, with W507L counted along it
# T6 sequence (P56726 33-793 W539L): as the sequence (P56726 33-793) above, with W507L counted along it
compound,measurement,setting,value
"CC1=C2C[C@H]3[C@@H](CC=C4C[C@@H](O)CC[C@@]43C)[C@@H]2CC[C@]12O[C@@H]1C[C@H](C)CN[C@H]1[C@H]2C [cyclopamine, reference compound]",IC50,"[1]; Mus musculus, Shh Light2, read-out: IC50, inhibition of Shh signaling",300 nM
same,observable toxicity in treated animals,[2],absence of observable toxicity
CC1=C2C[C@H]3[C@@H](CC=C4CC(=O)CC[C@@]43C)[C@@H]2CC[C@]12O[C@@H]1C[C@H](C)CN(CCNC(=O)CCCCCNC(=O)CCc3ccccc3)[C@H]1[C@H]2C [KAAD-cyclopamine],inhibition of BODIPY-cyclopamine binding to cells expressing wildtype Smo,[3]; 150 nM KAAD-cyclopamine,inhibited
same,Kd,"[3]; competition of 5 nM BODIPY-cyclopamine binding, flow cytometry, Cos-1 cells, read-out: apparent dissociation constant (Kd), KAAD-cyclopamine/Smo complex",23 nM
same,inhibition of BODIPY-cyclopamine binding to cells expressing SmoΔCRD,[4],inhibited
same,inhibition of BODIPY-cyclopamine binding to cells expressing SmoΔCT,[5],inhibited
same,competition of PA-cyclopamine labeling of Smo-Myc3,"[6]; 1.5 μM KAAD-cyclopamine, Cos-1 cells",inhibited
same,ER-localization of SmoA1-GFP,[7]; 10 μM,reversed
same,shift in SmoA1 glycosylation state (endo H),[8],partial conversion of SmoA1 to an endo H-resistant form
same,IC50,[9],20 nM
CNC1CCC(N(Cc2cccc(-c3ccncc3)c2)C(=O)c2sc3ccccc3c2Cl)CC1 (stereo not drawn) [SAG],ER-localization of SmoA1-GFP,[7]; 1 μM,reversed
PA-cyclopamine,IC50,"[1]; Shh-LIGHT2 mouse cultured cell assay, read-out: IC50, inhibition of Shh signaling",150 nM
same,photoaffinity labeling of Smo-Myc3 (two forms),"[6]; Cos-1 cells transiently transfected, upon photoactivation",readily labeled
same,photoaffinity labeling of endogenous mouse Smo,"[6]; live NTH-3T3 cells, light activation",did not detectably label
same,photoaffinity cross-linking of SmoA1,[10],unable to efficiently cross-link
